In patent US20260132420A1, “VIRAL VECTORS FOR NUCLEAR REPROGRAMMING” (Mayor Foundation for Medical Education and Research, priority 2016, published 2026):

Experiments:
BJ cells [1] = assay: Reprogramming of BJ human fibroblasts into iPSC-like clones; format: cell-based; settings: SB431542 5 μM, PD0325901 0.2 μM, Thiazovivin 0.5 μM together, day 7 to 14
Procedure: Using a reprogramming protocol described elsewhere (Driscoll et al., Stem Cell Research and Therapy 6:48 (2015)), an iPSC-like clone with MV(OCT4)P-ΔH(KLF4) (GFP)H or MV(T) vector in combination with 2 LV encoding SOX2 and cMYC was obtained. The clone obtained with vector MV(T) was analyzed for pluripotency markers (FIGS. 2B and C), for its ability to spontaneously differentiate into the three germ lineages after EB formation (not shown), and its ability to differentiate into contracting cardiomyocytes through guided cardiac differentiation (FIG. 2D).
To increase transduction efficiency the spinoculation technique was established. To reduce MV-induced toxicity, the MOI of transduction was decreased. BJ cells, a neonatal foreskin human cells were purchased from the American Type Culture Collection (ATCC #CRL 2522), and were transduced with the 4F vector at a MOI of 1 instead of 6 as described elsewhere (Driscoll et al., Stem Cell Research and Therapy 6:48 (2015)). In order to induce TLR3 activation during MV reprogramming, the transduction was performed in presence of polyI:C (a TLR3 activator). Transduced cells were subjected or not to spinoculation at 1000 rpm for 1 hour at room temperature. The culture supernatants were replaced with BJ media every three days. […] The cells were monitored until reprogrammed cells form small colonies with iPSC morphology (one to two weeks after vector transduction). […] The most efficient MOI for each vector was determined.
The ability of the MV(OCT4) mir375 to reprogram BJ cells in presence of 3LV expressing SOX2, KLF4, and cMYC was analyzed, and its efficiency was compared to MV(OCT4) and 4LV. […] Using light and fluorescence microscopy, early phases of iPSC-like clone development with MV(OCT4)miR375 were observed (15 days post transduction, FIG. 6B). […] The expression of the N mRNA in the early passages of four iPSC-like clones derived from MV(OCT4)miR375 was analyzed. […] RNA was collected at each passage and RT-PCR for N and P mRNA was analyzed. […]
The ability of the 4F* to reprogram BJ cells was analyzed. […]

BJ cells [2] = assay: Transduction efficiency by GFP expression (microscopy, flow cytometry); format: cell-based, human; settings: added at transduction with MV vector, 48 hours
From the text: To increase transduction efficiency the spinoculation technique was established. To reduce MV-induced toxicity, the MOI of transduction was decreased. BJ cells, a neonatal foreskin human cells were purchased from the American Type Culture Collection (ATCC #CRL 2522), and were transduced with the 4F vector at a MOI of 1 instead of 6 as described elsewhere (Driscoll et al., Stem Cell Research and Therapy 6:48 (2015)). In order to induce TLR3 activation during MV reprogramming, the transduction was performed in presence of polyI:C (a TLR3 activator). Transduced cells were subjected or not to spinoculation at 1000 rpm for 1 hour at room temperature. The culture supernatants were replaced with BJ media every three days. After 9 days, optimized serum-free/feeder-free iPSC medium was added and replaced daily. The cells were monitored until reprogrammed cells form small colonies with iPSC morphology (one to two weeks after vector transduction). Pictures were taken at different stages. iPS-like clones were picked after three to four weeks, and plated at 1 colony/well in Matrigel-coated wells for further expansion. […] The most efficient MOI for each vector was determined.
Transduction efficacy of the vectors was tested at different MOI using light microscopy and flow cytometry and testing for GFP expression. BJ cells were transduced with 4F* at a MOI of 0.5 or 0.25. […]

Compound | effect of added small molecules on reprogramming efficiency of MV four factor vectors (BJ cells [1]) | effect on expression of measles proteins (GFP) (BJ cells [2])
NC(=O)c1ccc(-c2nc(-c3ccc4c(c3)OCO4)c(-c3ccccn3)[nH]2)cc1 [SB431542] | improved efficiency | –
O=C(NOC[C@H](O)CO)c1ccc(F)c(F)c1Nc1ccc(I)cc1F [PD0325901] | improved efficiency | –
polyI:C | – | does not affect the expression of measles proteins
O=C(NCc1ccccc1)c1csc(Nc2ccncn2)n1 [Thiazovivin] | improved efficiency | –
